Experiments:
Assay in all cases: standard MIC test, synergist in combination with amoxycillin
Type in all cases: cell-based
Conditions in all cases: substance alone, unit assumed
E.coli JT39 = system: E.coli JT39
Method: (§1) In a standard MIC test the compound of Example 2 was tested as a synergist in combination with amoxycillin: […]

Klebsiella Aerogenes E70 = system: Klebsiella Aerogenes E70
Method: as §1

Staph Aureus Russell = system: Staph Aureus Russell
Method: as §1

MIC (E.coli JT39) [µg/mL] | MIC (Klebsiella Aerogenes E70) [µg/mL] | MIC (Staph Aureus Russell) [µg/mL] | Compound
2000 | 500 | 500 | CC1(C)S[C@@H]2[C@H](NC(=O)[C@H](N)c3ccc(O)cc3)C(=O)N2[C@H]1C(=O)O [Amoxycillin]
31 | 62 | 62 | COC(OC)OC/C=C1\O[C@@H]2CC(=O)N2[C@H]1C(=O)O [Ex. 2, Lithium 9-O-(dimethoxymethyl)clavulanate]

— EP0080284A1, “Derivatives of clavulanic acid, processes for their preparation and their use” (BEECHAM GROUP PLC, priority 1981, dated 1983)
